Experimental data from EP3838286B1, “ANTIMICROBIAL PEPTIDE FROM POLISTES GALLICUS VENOM AND ITS ANALOGS” (Latoxan, priority 2019, dated 2021).
Values joined by “and” are separate entries in the source; they are usually repeats but may differ in a detail not shown here. Equal entries are not always repeated. Ends that are not written are not given here.

Columns and labels:
[1] = test system: E. coli; conditions: Konno et al., Peptides 2006; cited from earlier work
[2] = test system: P. aeruginosa; conditions: Konno et al., Peptides 2006; cited from earlier work
[3] = test system: HeLa TLR4/IL-8 Renilla Luciferase Reporter cell line; assay: Anti-inflammatory activity (LPS stimulation, luciferase reporter); assay type: cell-based; conditions: 10 ng/mL LPS from P. aeruginosa; 6 h incubation; read-out: IC50 (inhibition of LPS effect)
Description: Anti-inflammatory activity of the peptides was determined using eLUCidate™ HeLa TLR4/IL-8 Renilla Luciferase Reporter cell line (obtained from ASMBIO). eLUCidate™ HeLa cells were cultivated according to manufacturer instructions. eLUCidate™ HeLa cells were seeded in 96 wells plates at an initial 50,000 cells/well. The next day, media from wells was empty and cells were exposed to LPS from P. aeruginosa (from Sigma Aldrich) diluted in culture media at a final concentration of 10 ng/ml in the presence of increasing concentrations of peptides. Polymyxin B (PMB, from Sigma Aldrich) was used as positive control. After 6 h incubation at 37°C in an incubator containing 5% CO2, wells were empty and cells were lysed in 70 µl of PBS containing 1% Triton X100 for 15 min on ice. 50 µl of cell lysats were then transferred to white 96 wells plates containing 50 µl of Renilla Luciferase substrate (Genofax A from Yelen, Marseille France). Luminescence intensities were measured using microplate reader (Synergy Mx, Biotek). The luminescence values were normalized by the controls (buffer treated cells) and expressed as percent of LPS stimulation. […]

[4] = test system: human erythrocytes; assay: Hemolytic activity assay; assay type: cell-based
Description: The hemolytic activity of each peptide was determined by the leakage of hemoglobin from human erythrocytes (obtained from Divbioscience, NL) as previously described (Oyama et al., 2017 Biofilms Microbiomes, Dec 1;3:33).
Briefly, human erythrocytes were washed 3 times with phosphate buffer saline (PBS) and concentrated using centrifugation at 800 g for 5 min. Human erythrocytes were then resuspended in PBS at a final concentration of 8 %. 100 µl of human erythrocytes were then added per well of sterile 96 well microplate already containing 15 µl of serially diluted antimicrobials (1:2 in distilled water). After 1 h at 37°C, the microplate was centrifuged at 800 g for 5 min. 100 µl were then carefully collected and transferred to a new 96 well microplate and OD was measured at 405 nm. Hemolysis caused by peptides was expressed as percentage of hemolysis; Triton-X100 at 0.1 % (v:v) was used as positive control and gave 100 % hemolysis. Hemolysis rate was determined as below: Hemolysis rate (%) = (A−A2)/(A1−A2) × 100% [formula] where A is the absorbance of indicator mixtures with different factors, A1 and A2 are the positive control, and the negative control, respectively.

[5] = test system: B. subtilis
[6] = test system: S. aureus
[7] = test system: Candida albicans
[8] = test system: A.baumani
[9] = test system: E. coli
[10] = test system: P. aeruginosa
[11] = test system: Gram-positive and Gram-negative bacteria

eumenitin
effective concentration against E. coli [1]: 6 µM | effective concentration against P. aeruginosa [2]: 30 µM

Polymyxin B [PMB]
IC50 [3]: 57 nM and 57.6 nM

ILKAIKKLLKN-NH2 [LTX-gallicune-1 (I1N11)]
hemolytic activity ([4]; at 1mM): not hemolytic | hemotoxicity: no toxicity towards red blood cells up to ([4]; highest concentration tested): > 10 mM | times less toxic (hemotoxic) than Gallicus-CP ([4]; human erythrocytes, Fig 3): 1000 times | MIC against B. subtilis [5]: 6.25 µM | MIC against S. aureus [6]: ≥ 100 µM | MIC against Candida albicans [7]: 50 µM | MIC (µM) A.baumani [8]: 100 µM | MIC (µM) E. coli [9]: 6.25 µM | MIC against E. coli [9]: > 50 µM

ILSAILGLLKNL-NH2 [Gallicus-CP(I1L12)]
50% MHC (concentration inducing 50% hemolysis of human erythrocytes) [4]: 10 µM | MIC (µM) P. aeruginosa [10]: 100 µM | minimal inhibitory concentration (MIC) [11]: 1.56 to 100 µM
